Experimental data: patent publication US7279293B2 (priority 2002, dated 2007)
Entries after “also recorded” stand apart in the source; their conditions may differ.

Tests used:
Type in all cases: cell-based
[1] = system: wild type mouse H3 receptor and mouse H3 receptor mutants MT1, MT2, MT3, MT5, MT6; conditions: 10 μM forskolin
Protocol: (§1) Wild type mouse H3 receptor cDNA and the five mouse H3 receptor mutant cDNAs were each transfected into cell line HEK293, and screened with G418 to obtain their respective stable clones. Northern analysis was used to check expression levels, and stable clones with roughly equal expression levels were used in the experiment.
(§2) Since H3 receptors are Gi-binding-type G protein-coupled receptors, cAMP levels were measured using ELISA. More specifically, 10^5 cells per well were cultured in a 24-well plate the day before testing. On the day of the test, cells were cultured for 15 minutes in the absence of serum, and then treated for 15 minutes with 0.5 mM IBMX. Forskolin (10 μM), histamine (10^−11 M to 10^−6 M) and thioperamide (10^−10 M to 10^−5 M) were respectively added, and the cells were treated for 15 minutes. The cAMP Enzyme Immunoassay (EIA) System (Amersham) was used to measure cAMP. The cells were lysed with 150 μl of lysing reagent 1B, provided with the kit. 5 μl of the cell lysate and rabbit anti-cAMP antibody were reacted by being allowed to stand undisturbed at 4° C. for two hours on an antibody-immobilized plate. Moreover, enzyme-labeled antibody was added and reacted by being allowed to stand undisturbed at 4° C. for one hour. The plate was washed with buffer, and enzyme substrate solution was then added and reacted by being allowed to stand undisturbed at room temperature for about 30 minutes. The reaction was stopped with 1 N sulfuric acid, and optical absorbance was then measured. A standard curve was produced from the optical absorbances of standard cAMP solutions, and cAMP levels were determined.

[2] = target: T1, wild type mouse H3 receptor and mouse H3 receptor mutants MT1, MT2, MT3, MT5, MT6 (Mus musculus, UniProt P58406, A357K)
T1 construct: expressed in transfected cells
Protocol: as §1, §2

[3] = target: T2, MT6 clone (constitutively active mouse H3 receptor mutant) (Mus musculus, UniProt P58406, A357K); experiment: cAMP levels by ELISA (cAMP EIA) in the HEK293 MT6 clone, with 10 μM forskolin; conditions: thioperamide with 10 μM forskolin; MT6 clone versus wild type H3
T2 construct: expressed in transfected cells
Protocol: as §1
as §2, with “Moreover, enzyme-labeled antibody was added and reacted by being allowed to stand undisturbed at 4° C. for one hour. The plate was washed with buffer, and enzyme substrate solution was then added and reacted by being allowed to stand undisturbed at room temperature for about 30 minutes.” left out

T1 sequence (P58406 whole entry A357K): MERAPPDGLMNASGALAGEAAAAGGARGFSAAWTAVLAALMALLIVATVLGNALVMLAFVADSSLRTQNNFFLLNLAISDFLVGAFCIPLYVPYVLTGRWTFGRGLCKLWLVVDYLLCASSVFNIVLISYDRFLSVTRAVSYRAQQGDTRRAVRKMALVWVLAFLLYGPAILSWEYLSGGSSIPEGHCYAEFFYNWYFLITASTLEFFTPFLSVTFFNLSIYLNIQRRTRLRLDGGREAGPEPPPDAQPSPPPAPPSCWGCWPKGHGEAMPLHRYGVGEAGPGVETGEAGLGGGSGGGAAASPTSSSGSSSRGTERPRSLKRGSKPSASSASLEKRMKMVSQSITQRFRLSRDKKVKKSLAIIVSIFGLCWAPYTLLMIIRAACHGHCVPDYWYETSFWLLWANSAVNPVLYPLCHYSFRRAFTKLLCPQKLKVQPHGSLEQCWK
T2 sequence (P58406 whole entry A357K): as above

Compound: NCCc1c[nH]cn1 [histamine]
- change in cAMP levels caused by histamine ([1]; all clones, histamine 10^-11 M to 10^-6 M, 15 minutes, FIG. 4): decrease in a histamine dose-dependent manner; also recorded: decreased histamine dose-dependently

Compound: S=C(NC1CCCCC1)N1CCC(c2cnc[nH]2)CC1 [thioperamide]
- change in cAMP levels caused by thioperamide [2]: increase with increased doses of thioperamide; also recorded: increase cAMP levels dose-dependently
- cAMP increase in MT6 clone compared to the wild type [3]: about five-fold

Compound: pertussis toxin [PTX]
- effect of PTX on the cAMP increases caused by thioperamide ([1]; wild type H3 and MT6 clones, PTX 100 ng/ml for 18 hours): inhibited the increases in cAMP caused by thioperamide
